Measured values: patent publication US20250041422A1, “METHOD OF TREATING ARRHYTHMIA, POPULATION OF PACEMAKER CARDIOMYOCYTES, AND METHOD OF TREATING CARDIAC ARRHYTHEMIA USING POPULATION OF PACEMAKER CARDIOMYOCYTES” (priority 2022, published 2025)
“Also recorded” adds a separate entry of the source. One block for each molecule: values may come before it.

What was measured:
[1] = tested on: aldolase c (Aldoc); test: Aldoc transcripts by quantitative real-time PCR in treated Tbx18-PC/fibroblast cocultures; format: cell-based, rat; settings: for transcriptional expressions of Aldolase C / Aldolase C expressions: 4 days; for aldolase c expressions within pacemaker cardiomyocytes: in-vitro, summary statement, concentration not given at the place
Protocol: (§1) The Tbx18-PCs were used as the cell model of pacemaker cardiomyocytes, which were generated by the transduction of VMs with adenoviral human Tbx18 (MOI [multiplicity of infection]: 10; green fluorescent protein [GFP] reporter, ADV-225152, Vector Biolabs, Malvern, USA) for 24 hours (Kapoor et al; Hu et al.). Those with adenovirus-CMV-GFP were used as control VMs (Tsai et al., J Biomed Sci, 2015). For the cocultures of Tbx18-PCs and fibroblasts, a ratio of fibroblasts/VMs ( 1/10) was first plated on fibronectin-coated wells, and adenoviral Tbx18 was transduced for 24 hours one day after seeding to induce PCs. […] Therefore, the beating rates, metabolic and molecular phenotypes, including microelectrode array (MEA), whole transcriptomes, Seahorse analysis, metabolomics, glycolysis metabolites (lactate or DHAP), protein and gene transcripts were analyzed 3-5 days after Tbx18 transduction. The beating rates were recorded by MEA or video. An inverted microscope (AXIO Observer Al, Carl Zeiss AG, Oberkochen, Germany) was used for 10-second video capture. Video was analyzed with Q Capture Pro 6.0 (Teledyne Technologies, CA, USA).
For the experiments of drug treatment, Tbx18-PCs after re-expression of Tbx18 were treated with sodium pyruvate (1 mM, 11360-070, Thermo Fisher Scientific, 3 days), 2-deoxy-D-glucose (2-DG, 5 mM, D8375, Sigma-Aldrich, 3 days), wortmannin (PI3K inhibitor, 100 nM, 12-338, Merck Millipore, MA, USA, 4 days), anti-integrin β1 monoclonal antibody (ltgb1, MAB1987Z, 10 μg/mL, Merck Millipore, 2 days), or SB203580 (p38-MAP kinase inhibitor, 559389, 1 μM, Merck Millipore, 3 days), respectively. Then the beating rate and gene expression were analyzed. […]
(§2) Total RNA was extracted from cultured VMs using the RNeasy® Mini Kit (74106, Qiagen, Venlo, Netherlands). Complementary DNAs (cDNAs) were synthesized using a SuperScript® […] First-Strand Synthesis System (18080051, Thermo Fisher Science). Quantitative real-time PCR (qRT-PCR) was performed using Applied Biosystems™ StepOnePlus Real-Time PCR system with TaqMan probe assays (4331182, Invitrogen, Waltham, Massachusetts, USA) and PrimeTime qPCR Probe Assays (Integrated DNA Technologies, Inc., Coralville, Iowa, USA). The internal control was Gapdh. The conditions of thermocycle used in amplification were denaturation at 95° C. for 15 seconds and annealing and extension step at 60° C. for 60 seconds by 40 cycles. The relative values of gene transcripts were analyzed by ΔΔCt method. All the probes used are listed below in Table 1.
(§3) The cocultures of Tbx18-pacemaker cardiomyocytes (PCs) and fibroblasts, a ratio of fibroblasts/VMs ( 1/10) was first plated on fibronectin-coated wells, and adenoviral Tbx18 (MOI [multiplicity of infection]: 10, ADV-225152, Vector Biolabs, Malvern, USA) was transduced for 24 hours after seeding to induce PCs. After re-expression of Tbx18 were treated with the inhibitors of PI3K (wortmannin, PIK-75, Duvelisib, Alpelisib, Copanlisib, Idelalisib, and Eganelisib), and one IKK inhibitor (BMS-345541) for 4 days. Then the beating rate and Aldoc transcriptional expressions were analyzed. The beating rates were recorded by video. An inverted microscope (AXIO Observer Al, Carl Zeiss AG, Oberkochen, Germany) was used for 10-second video capture. We analyzed the video with Q Capture Pro 6.0 (Teledyne Technologies, CA, USA). Aldoc gene transcriptional expressions were analyzed by quantitative real-time PCR. The protocol is as same as the treatment described previously (FIGS. 31A-31B).
Total RNA was extracted from cultured VMs using the RNeasy® Mini Kit (74106, Qiagen, Venlo, Netherlands). Complementary DNAs (cDNAs) were synthesized using a SuperScript® […] First-Strand Synthesis System (18080051, Thermo Fisher Science). […]

[2] = tested on: Tbx18-PC tissue sheets; test: Beating rate / electrical firing of engineered Tbx18-PC tissue sheets; format: cell-based, rat; settings: epinephrine 0.15 μg/mL
Protocol: The fibroblasts and VMs were mixed in a ratio of 1:10 (fibroblast/VMs, total cell number: 1×10^6) with an extracellular matrix of 10% Matrigel (354230, Corning®) in the cultured-insert (80209, 0.22 mm^2, ibidi GmbH, Grsfelfing, Germany) for gelation at 37° C. The engineered tissue was transduced with adenoviral human Tbx18 or control vectors 24 hours after gelation. The constant beating was usually observed 4-5 days after Tbx18 adenovirus transduction. Therefore, phenotypes were determined using immunofluorescence staining, beating rate (either video recording or microelectrode array), and real-time quantitative PCR after virus transduction for 5-6 days. The autonomic response of Tbx18-PC tissue sheets was evaluated by treatment with epinephrine (Taiwan Biotech Co., Ltd, Taoyuan, Taiwan).
The Tbx18-PC cocultures were treated with 200 nM siRNAs (Dharmacon™, GE Healthcare, Lafayette, CO, USA or GenePharma, Shanghai, China) or negative controls (nontarget siRNAs, D-001810-10-05, Dharmacon™ or negative controls, GenePharma) for 24 hours using DharmaFECT transfection reagent (Dharmacon™) in serum-free and antibiotic-free medium. Cells were incubated at 37° C. in 5% C02 for 96 hours, and the beating rate was recorded by microelectrode array (MEA) or video. Then, total RNA was extracted for real-time PCR analysis. […]

[3] = tested on: mouse SAN; test: Heart rate recording (ECG) in mice; format: in vivo; settings: epinephrine 2.5 μg intraperitoneal, control (scramble) mice
Protocol: Male mice (C57BL/6, 26 to 32 g, 13-14 weeks, National Laboratory Animal Center, Taiwan) were mechanically ventilated at a controlled temperature (37° C.±0.5° C.) under general anesthesia (isoflurane). […] AAV9 siRNA or scramble virus with a reporter of green fluorescent protein (1.44×10^9 gene copies; AAV9 scramble siRNA [iAAV01509] and Aldoc siRNA pooled virus [117530940219], Applied Biological Materials, Canada) was added to the pericardial recess through the opening. […] The survival rate was 100%. All animals were included except one scramble animal. One animal from the scramble group was excluded because arrhythmia was observed before the experiment.
Two weeks later, the three-lead surface ECG (Biopac, MP36, CA, USA) was recorded on mice by inserting needle electrodes subcutaneously into the limbs after anesthesia. The heart rate was recorded for 2 minutes first to compare the knockdown and control groups. Then, we performed a peritoneal injection of epinephrine (2.5 μg, Taiwan Biotech) and recorded the heart rate for 5 minutes after the injection. After the recording, the mouse hearts were removed for tissue analysis. ECG data were analyzed by Biopac Student Lab 4.1 software (Biopac).

[4] = tested on: Tbx18-induced pacemaker cardiomyocytes; test: Beating rate / electrical firing rate of Tbx18-induced pacemaker cardiomyocytes (video or MEA); format: cell-based, rat
Protocol: as §1
(§4) For the experiments of drug treatment, Tbx18-PCs after re-expression of Tbx18 were treated with sodium pyruvate (1 mM, 11360-070, Thermo Fisher Scientific, 3 days), 2-deoxy-D-glucose (2-DG, 5 mM, D8375, Sigma-Aldrich, 3 days), wortmannin (PI3K inhibitor, 100 nM, 12-338, Merck Millipore, MA, USA, 4 days), anti-integrin β1 monoclonal antibody (ltgb1, MAB1987Z, 10 μg/mL, Merck Millipore, 2 days), or SB203580 (p38-MAP kinase inhibitor, 559389, 1 μM, Merck Millipore, 3 days), respectively. Then the beating rate and gene expression were analyzed.
(§5) Tbx18-PCs or human IPS-CMs were transduced with human Aldoc adenovirus (CMV promotor, 068583A, Applied Biological Materials, Richmond, BC, Canada), and CMV-null adenovirus was used as a control (000047A, Applied Biological Materials) for 24 hours. Aldoc overexpression was confirmed by Aldoc transcripts (FIG. 1J). The protein, gene transcripts, and beating rates were analyzed 3 days after transduction. The viral titer used in cell transduction of aldolase c overexpression is MOI of 10. The transduced cells were not subjected to enrichment by the antibiotic selection.
MEA was used to record electrical firing in Tbx18-PCs, Tbx18-PC tissue sheets, or human IPS-CMs. The cells or tissue sheets were seeded on fibronectin-coated MEA CytoView MEA 24-White plate at 37° C. and 5% C02 (M384-tMEA-24W, Axion BioSystems, Atlanta, USA). The electrical firing rates were recorded by Maestro Edge (Axion BioSystems). The continuous recording of electrical signals for 5 minutes was used for the analysis (sampling frequency: 12.5 kHz, low pass and high pass filter: 2 kHz and 0.1 Hz) by AxIS Navigator software Axion BioSystems. In human IPS-CMs, the cells were further treated with epinephrine (150 ng/mL, Taiwan Biotech Co., Ltd) after recording baseline electrical firing rate. Similarly, continuous recording of electrical signals for 5 minutes after the treatment was used for the analysis.
as §3, with “The protocol is as same as the treatment described previously (FIGS. 31A-31B).” left out

[5] = tested on: Hcn4; test: Hcn4 expression in Tbx18-induced pacemaker cardiomyocytes (real-time PCR); format: cell-based, rat; settings: for Hcn4 expression: 3 days, Tbx18-PCs
Protocol: as §4, §5, §2

[6] = in-vitro, summary statement, concentration not given at the place

aldolase c expressions within pacemaker cardiomyocytes [1]: increased
Structure (SMILES): CC[C@H](Nc1ncnc2[nH]cnc12)c1nc2cccc(F)c2c(=O)n1-c1ccccc1 [Idelalisib]
beating rates [4, 6]: increased | transcriptional expressions of Aldolase C ([1]; 100 nM, control 0.87±0.05, P=0.02): 1.01±0.02

Aldolase C expressions ([1]; PIK-75 high dose (10 nM), vs control): increased | aldolase c expressions within pacemaker cardiomyocytes [1]: increased
Structure (SMILES): Cc1ccc([N+](=O)[O-])cc1S(=O)(=O)N(C)/N=C/c1cnc2ccc(Br)cn12 [PIK-75]
beating rate ([4]; PIK-75 high dose (10 nM), 4 days, vs control): increased | beating rate ([4]; PIK-75 low dose (1-5 nM), 4 days, vs control): increased | beating rates [4, 6]: increased

aldolase c expressions within pacemaker cardiomyocytes [1]: increased
Structure (SMILES): Cc1nc(NC(=O)N2CCC[C@H]2C(N)=O)sc1-c1ccnc(C(C)(C)C(F)(F)F)c1 [Alpelisib]
beating rates [4, 6]: increased | transcriptional expressions of Aldolase C ([1]; 250 nM, control 0.87±0.05, P=0.008): 1.13±0.05

aldolase c expressions within pacemaker cardiomyocytes [1]: increased
Structure (SMILES): COc1c(OCCCN2CCOCC2)ccc2c1N=C(NC(=O)c1cnc(N)nc1)N1CCN=C21 [Copanlisib]
beating rates [4, 6]: increased | transcriptional expressions of Aldolase C ([1]; 10 nM, control 0.64±0.09, P=0.002): 1.32±0.09

More lines, now with the values behind:

Structure (SMILES): C[S+]([O-])c1ccc(-c2nc(-c3ccncc3)c(-c3ccc(F)cc3)[nH]2)cc1 (stereo not shown) [SB203580]
Aldoc expression ([1]; SB203580 1 μM, 3 days, cocultures, vs control): decreased; also recorded: reduced

Structure (SMILES): CNC[C@H](O)c1ccc(O)c(O)c1 [epinephrine]
beating rate ([2]; Tbx18-PC tissue sheets): increased | beating rate ([2]; control tissue sheets): minimal changes | heart rate [3]: increased

Structure (SMILES): C[C@H](Nc1ncnc2nc[nH]c12)c1cc2cccc(Cl)c2c(=O)n1-c1ccccc1 [Duvelisib]
transcriptional expressions of Aldolase C ([1]; 50 nM, control 0.82±0.08, P=0.02): 1.17±0.11

Structure (SMILES): C[C@H](NC(=O)c1c(N)nn2cccnc12)c1cc2cccc(C#Cc3cnn(C)c3)c2c(=O)n1-c1ccccc1 [Eganelisib]
beating rates [4, 6]: increased | transcriptional expressions of Aldolase C ([1]; 40 nM, control 0.57±0.03, P=0.013): 0.82±0.07 | aldolase c expressions within pacemaker cardiomyocytes [1]: increased

Structure (SMILES): Cc1ccc2nc(NCCN)c3ncc(C)n3c2c1 [BMS-345541]
Hcn4 expressions ([5]; BMS-345541 5 μM, vs control): increased | beating rate ([4]; BMS-345541 1-10 μM, 4 days, vs control): increased | beating rates [4, 6]: increased | Aldolase C expressions ([1]; BMS-345541 5 μM, vs control): increased | aldolase c expressions within pacemaker cardiomyocytes [1]: increased

Structure (SMILES): CC(=O)C(=O)[O-].[Na+] [sodium pyruvate]
Hcn4 expression ([5]; sodium pyruvate 1 mM): increased | beating rates ([4]; sodium pyruvate 1 mM, 3 days, Tbx18-PCs): increased

Structure (SMILES): O=CC[C@@H](O)[C@H](O)[C@H](O)CO [2-DG, 2-deoxy-D-glucose]
Hcn4 expression ([5]; 2-DG 5 mM): decreased | beating rate ([4]; 2-DG 5 mM, 3 days, Tbx18-PCs): decreased
